Assay results: PubChem BioAssay (NCI)
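48-hour exposure; five concentrations; linearly interpolated endpoints. GI50: concentration for 50% inhibition of growth. TGI: concentration producing complete growth inhibition.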

What was measured:
Assay in all cases: NCI tumour cell line growth inhibition, 48 h
[1] = tested on: SF-539 CNS
[2] = tested on: SK-OV-3 ovarian
[3] = tested on: NCI-H460 lung
[4] = tested on: HOP-62 NSCLC
[5] = tested on: NCI-H23 lung
[6] = tested on: CAKI-1 renal
[7] = tested on: OVCAR-4 ovarian
[8] = tested on: HT29 colon
[9] = tested on: SK-MEL-2 melanoma
[10] = tested on: DU-145 prostate

Structure (SMILES)	TGI [1] [µM]	TGI [2] [µM]	TGI [3] [µM]	TGI [4] [µM]	TGI [5] [µM]	TGI [6] [µM]	TGI [7] [µM]	TGI [8] [µM]	GI50 [1] [µM]	GI50 [9] [µM]	TGI [9] [µM]	GI50 [3] [µM]	GI50 [7] [µM]	GI50 [10] [µM]	TGI [10] [µM]	GI50 [8] [µM]	GI50 [2] [µM]	GI50 [4] [µM]	GI50 [5] [µM]	GI50 [6] [µM]
Cc1ccc(S(=O)OCc2c(C)c(C)c(COS(=O)c3ccc(C)cc3)c(C)c2C)cc1 (stereo not given)	> 100	> 100	> 100	> 100	> 100	> 100	> 100	> 100												
Cc1cc(N(CCCNc2ccnc3cc(Cl)ccc23)Cc2ccc3c(c2)OCO3)nc(N2CCOCC2)n1	0.66		14.1				32.8	0.695	0.251	0.207	0.457	0.318	0.402	0.353	53.8	0.247				
COc1cccc2c1C(=O)c1c(O)c3c(c(O)c1C2=O)C[C@@](O)(/C(C)=N/NC(=O)c1ccc(Cl)cc1)C[C@@H]3OC1CC(N)C(O)C(C)O1 (stereo not given in full)	0.747	13.8		1.94	1.12	5.98	2.31	1.41	0.21				0.348	0.271	13.5	0.232	0.481	0.215	0.194	0.708
CC(C)=CCc1cc2c(cc1O)OC[C@H]1c3cc4c(cc3O[C@@H]21)OCO4	> 100	> 100	44.5	> 100	96.3	> 100	> 100	> 100							> 100					
COc1ccc(-c2cc(/C=C/C(=O)c3ccc(OC)c(OC)c3)[nH]n2)cc1	2.61	17.1	4.34	6.17	6.33	3.52	3.87	3.45	1.27			1.64	0.509	1.4	2.81	1.55	5.56	2.35	2.47	1.55
CN(C)CCSc1cc(-c2ccccc2)c2ccccc2n1	23	15.9		22.9	23.1	30.9		35.8			28.6				28.7					
COC(=O)c1ccc(-c2c(C#N)[n+](=O)c3cc(Cl)c(Cl)cc3n2[O-])cc1	40.5		44.7	34.8	29.3	35.4	38	58	19.7			18.6	19.7	20.2	40.9	19.9		16.8	11.7	18.9
CC(C)OC(=O)[C@H](C)NP(=O)(OC[C@H]1O[C@@H](n2ccc(=O)[nH]c2=O)[C@](C)(F)[C@@H]1O)Oc1ccccc1 (stereo not given in full)	> 100	> 100	> 100	> 100	> 100		> 100	> 100	> 100	> 100	> 100	> 100	> 100	> 100	> 100	> 100	> 100	> 100	> 100	
C=CCN1CCC23c4c5ccc(O)c4OC2C(=NN=C2CCC4(O)C6Cc7ccc(O)c8c7C4(CCN6CC=C)C2O8)CCC3(O)C1C5 (stereo not given)	33.1	> 100	43.7	44	> 100	> 100	40.8	37.6			33.8									
Cn1cc(-c2csc(-c3c[nH]c4ccc(Br)cc34)n2)c2cnccc21	4.6		3.74	13.9	8.79		5.71		2.14	2.58	6.35	1.92	2.35	2.25	5.62			3.17	2.73	
COc1ccc(/C(=C\C=C(C#N)C#N)Sc2nc3ccccc3s2)cc1	2.59	29.5	> 50	16.7	20	> 50		6.06	1.19	34.1	> 50	11.7				1.54	14.3	8.16	9.46	15.8
CCN(CC)CCSc1c2ccccc2nc2c(OC)ccc(OC)c12	> 33.9	69.2	36.4	> 70.2	27.9	> 22.2	> 20	23.1			> 23									
COC(=O)c1ccc2c(c1)/C(=C\c1cc(Br)c(O)c(Br)c1)C(=O)N2	> 25	> 25	> 25	> 25	> 25	> 25	> 25	> 25	5.85			7.57	7.96	7.15	> 25	4.3	6.57	10.5	7.22	4.68
COC(=O)c1cc2c(s1)-c1nccc3c1c(nc1ccccc13)C2=O		> 100	> 100	> 100	> 100	> 100	> 100	> 100		> 100	> 100	> 100	> 100	> 100	> 100	> 100	> 100	65.4	> 100	> 100
C#Cc1nc(Nc2cc(C)[nH]n2)c2ccccc2n1	0.451	> 100	1.43		3.59	2.02		11.3	0.189			0.346	0.347	0.396	1.7	0.356	3.19		0.553	0.442
S=c1[nH]c2c(Cl)c(Cl)c(Cl)c(Cl)c2[nH]1	26.3	55.3	40.6	80.2	> 100	64.7	22.6	48.1							> 100					
C[Si](C)(C)/C(I)=C/CO	39.9	> 100	46.3		39.5		> 100	44.5			38.4									
